Experimental data: patent US6838468B2, “4-(phenyl-piperdin-4-ylidene methyl)-benzamide derivatives and their use for the treatment of pain, anxiety or gastrointestinal disorders” (AstraZeneca AB, priority 2001, dated 2005)

How the values were obtained:
[1] = biological target: T1, delta receptors, mouse brain membranes (Mus musculus, UniProt P32300); assay: GTP[γ]35S binding functional assay, mouse brain membranes; format: biochemical
T1 construct: from tissue; host or cells: mouse brain membranes
Procedure: (§1) • A. Human 293S cells expressing cloned human μ, δ, and κ receptors and neomycin resistance were grown in suspension at 37° C. and 5% CO2 in shaker flasks containing calcium-free DMEM10% FBS, 5% BCS, 0.1% Pluronic F-68, and 600 μg/ml geneticin. • B. Mouse and rat brains were weighed and rinsed in ice-cold PBS (containing 2.5 mM EDTA, pH 7.4). The brains were homogenized with a polytron for 15 sec (mouse) or 30 sec (rat) in ice-cold lysis buffer (50 mM Tris, pH 7.0, 2.5 mM EDTA, with phenylmethylsulfonyl fluoride added just prior use to […] from a 0.5M stock in DMSO:ethanol). Membrane Preparation
(§2) The agonist activity of the compounds is measured by determining the degree to which the compounds receptor complex activates the binding of GTP to G-proteins to which the receptors are coupled. In the GTP binding assay, GTP[γ]^35S is combined with test compounds and membranes from HEK-293S cells expressing the cloned human opioid receptors or from homogenised rat and mouse brain. Agonists stimulate GTP[γ]^35S binding in these membranes. The EC50 and Emax values of compounds are determined from dose-response curves. Right shifts of the dose response curve by the delta antagonist naltrindole are performed to verify that agonist activity is mediated through delta receptors.

cloned human δ receptor [2] = biological target: T2, cloned human δ receptor (Homo sapiens, UniProt P41143); assay: Binding assay, membranes of human 293S cells expressing cloned human δ receptor (HDELTA); conditions: radioligand displacement
T2 construct: expressed in transfected cells; host or cells: human 293S (HEK-293S) cells, geneticin-selected

cloned human δ receptor [3] = biological target: T2, cloned human δ receptor; assay: GTP[γ]35S binding functional assay, HEK-293S membranes expressing cloned human δ receptor (HDELTA); format: biochemical
Procedure: as §1
Cells were pelleted and resuspended in lysis buffer (50 mM Tris, pH 7.0, 2.5 mM EDTA, with PMSF added just prior to use to 0.1 mM from a 0.1 M stock in ethanol), incubated on ice for 15 min, then homogenized with a polytron for 30 sec. The suspension was spun at 1000 g (max) for 10 min at 4° C. The supernatant was saved on ice and the pellets resuspended and spun as before. The supernatants from both spins were combined and spun at 46,000 g(max) for 30 min. The pellets were resuspended in cold Tris buffer (50 mM Tris/Cl, pH 7.0) and spun again. The final pellets were resuspended in membrane buffer (50 mM Tris, 0.32 M sucrose, pH 7.0). Aliquots (1 ml) in polypropylene tubes were frozen in dry ice/ethanol and stored at −70° C. until use. The protein concentrations were determined by a modified Lowry assay with sodium dodecyl sulfate.
as §2

[4] = biological target: T3, delta receptors, rat brain membranes (Rattus norvegicus, UniProt P33533); assay: GTP[γ]35S binding functional assay, rat brain membranes; format: biochemical; conditions: GTPγ35S binding, maximal stimulated binding with 3 μM SNC-80
T3 construct: Rat brain membranes are thawed at 37° C; from tissue; host or cells: rat brain membranes
Procedure: as §1, §2
Rat brain membranes are thawed at 37° C., passed 3 times through a 25-gauge blunt-end needle and diluted in the GTPγS binding (50 mM Hepes, 20 mM NaOH, 100 mM NaCl, 1 mM EDTA, 5 mM MgCl2, pH 7.4, Add fresh: 1 mM DTT, 0.1% BSA). 120 μM GDP final is added membranes dilutions. […] The basal and maximal stimulated binding are determined in absence and presence of 3 μM SNC-80

T1 sequence (P32300 whole entry): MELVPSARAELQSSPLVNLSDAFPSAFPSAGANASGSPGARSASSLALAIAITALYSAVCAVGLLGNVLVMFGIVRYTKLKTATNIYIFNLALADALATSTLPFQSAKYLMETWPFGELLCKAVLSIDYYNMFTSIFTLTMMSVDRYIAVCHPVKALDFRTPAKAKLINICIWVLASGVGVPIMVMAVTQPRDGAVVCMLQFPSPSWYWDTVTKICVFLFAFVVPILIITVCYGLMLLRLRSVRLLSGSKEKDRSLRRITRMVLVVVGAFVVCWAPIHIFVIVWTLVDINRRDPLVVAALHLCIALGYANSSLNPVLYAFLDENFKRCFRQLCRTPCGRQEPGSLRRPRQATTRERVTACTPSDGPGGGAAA
T2 sequence (P41143 whole entry): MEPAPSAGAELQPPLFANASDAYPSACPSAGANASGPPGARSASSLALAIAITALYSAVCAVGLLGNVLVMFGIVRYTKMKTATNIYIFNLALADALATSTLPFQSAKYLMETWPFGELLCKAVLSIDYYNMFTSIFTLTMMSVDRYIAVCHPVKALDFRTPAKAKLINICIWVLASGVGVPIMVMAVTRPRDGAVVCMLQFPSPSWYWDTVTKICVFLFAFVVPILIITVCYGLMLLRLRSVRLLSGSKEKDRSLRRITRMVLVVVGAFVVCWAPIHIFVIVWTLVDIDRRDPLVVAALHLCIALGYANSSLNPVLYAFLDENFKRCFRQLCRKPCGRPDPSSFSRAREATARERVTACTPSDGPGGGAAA
T3 sequence (P33533 whole entry): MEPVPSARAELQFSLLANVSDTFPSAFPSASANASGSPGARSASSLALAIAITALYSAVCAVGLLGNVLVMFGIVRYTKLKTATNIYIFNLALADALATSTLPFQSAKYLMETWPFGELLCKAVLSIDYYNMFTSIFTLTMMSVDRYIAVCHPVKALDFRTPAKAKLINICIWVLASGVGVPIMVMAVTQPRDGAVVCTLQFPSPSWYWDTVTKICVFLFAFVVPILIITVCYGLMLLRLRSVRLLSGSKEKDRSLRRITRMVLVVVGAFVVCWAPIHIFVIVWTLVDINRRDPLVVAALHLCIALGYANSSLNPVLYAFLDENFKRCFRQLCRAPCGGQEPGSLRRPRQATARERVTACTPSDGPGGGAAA

| Compound | Emax [1] | IC50 (cloned human δ receptor [2]) | Emax (cloned human δ receptor [3]) | Emax [4] |
| --- | --- | --- | --- | --- |
| COc1ccc(CN2CCC(=C(c3ccc(C(=O)N(C(C)C)C(C)C)cc3)c3cccc4cccnc34)CC2)cc1 [Example 8, N,N-Diisopropyl-4-{1-[1-(4-methoxy-benzyl)-piperidin-4-ylidene]-1-quinolin-8-yl-methyl}-benzamide] | 100 to 151% | 0.78 to 5 nM | 96 to 102% | 97 to 144% |
| CC(C)N(C(=O)c1ccc(C(=C2CCN(Cc3cccs3)CC2)c2cccc3cccnc23)cc1)C(C)C [Example 4, N,N-Diisopropyl-4-[1-quinolin-8-yl-1-(1-thiophen-2-ylmethyl-piperidin-4-ylidene)-methyl]-benzamide] | 100 to 151% | 0.78 to 5 nM | 96 to 102% | 97 to 144% |
| CC(C)N(C(=O)c1ccc(C(=C2CCN(Cc3ccoc3)CC2)c2cccc3cccnc23)cc1)C(C)C [Example 6, N,N-Diisopropyl-4-[1-quinolin-8-yl-1-(1-furan-3-ylmethyl-piperidin-4-ylidene)-methyl]-benzamide] | 100 to 151% | 0.78 to 5 nM | 96 to 102% | 97 to 144% |
| CC(C)N(C(=O)c1ccc(C(=C2CCN(Cc3ccccc3)CC2)c2cccc3cccnc23)cc1)C(C)C [Example 1, 4-[1-(1-Benzyl-piperidin-4-ylidene)-1-quinolin-8-yl-methyl]-N,N-diisopropyl-benzamide] | 100 to 151% | 0.78 to 5 nM | 96 to 102% | 97 to 144% |
| CC(C)N(C(=O)c1ccc(C(=C2CCN(Cc3ncc[nH]3)CC2)c2cccc3cccnc23)cc1)C(C)C [Example 10, 4-{1-[1-(1H-Imidazol-2-ylmethyl)-piperidin-4-ylidene]-1-quinolin-8-yl-methyl]-N,N-diisopropylbenzamide] | 100 to 151% | 0.78 to 5 nM | 96 to 102% | 97 to 144% |
| CC(C)N(C(=O)c1ccc(C(=C2CCN(Cc3ccc(Br)cc3)CC2)c2cccc3cccnc23)cc1)C(C)C [Example 11] | 100 to 151% | 0.78 to 5 nM | 96 to 102% | 97 to 144% |
| CC(C)N(C(=O)c1ccc(C(=C2CCN(Cc3nccs3)CC2)c2cccc3cccnc23)cc1)C(C)C [Example 9, N,N-Diisopropyl-4-[1-quinolin-8-yl-1-(1-thiazol-2-ylmethyl-piperidin-4-ylidene)-methyl]-benzamide] | 100 to 151% | 0.78 to 5 nM | 96 to 102% | 97 to 144% |
| CC(C)N(C(=O)c1ccc(C(=C2CCN(Cc3ccccn3)CC2)c2cccc3cccnc23)cc1)C(C)C [Example 2, N,N-Diisopropyl-4-[1-(1-pyridin-2-ylmethyl-piperidin-4-ylidene)-1-quinolin-8-yl-methyl]-benzamide] | 100 to 151% | 0.78 to 5 nM | 96 to 102% | 97 to 144% |
| CC(C)N(C(=O)c1ccc(C(=C2CCN(Cc3ccncc3)CC2)c2cccc3cccnc23)cc1)C(C)C [Example 3, N,N-Diisopropyl-4-[1-(1-pyridin-4-ylmethyl-piperidin-4-ylidene)-1-quinolin-8-yl-methyl]-benzamide] | 100 to 151% | 0.78 to 5 nM | 96 to 102% | 97 to 144% |
| CC(C)N(C(=O)c1ccc(C(=C2CCN(Cc3ccco3)CC2)c2cccc3cccnc23)cc1)C(C)C [Example 7, N,N-Diisopropyl-4-[1-quinolin-8-yl-1-(1-furan-2-ylmethyl-piperidin-4-ylidene)-methyl]-benzamide] | 100 to 151% | 0.78 to 5 nM | 96 to 102% | 97 to 144% |
